Tested on: K98450-129-R-PDC complex spheroid growth, percent test/control
Assay: Anticancer human tumor K98450-129-R-PDC patient-derived colon adenocarcinoma cell line growth inhibition [RAS]
Conditions: for IC50: curve of first compound; for viability, T/C: stronger effect = lower value
Summary of the method: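 Multi-cell-type spheroids: tumor cells plus HUVEC endothelial cells and mesenchymal stem cells. RAS-pathway inhibitors were combined with targeted agents, each dosed in half-log steps down from clinical Cmax, or from 10 microM when Cmax was unknown.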

[1] = second compound 0.000949 µM, first compound 0.0316 µM
[2] = second compound 0.000949 µM, first compound 0.1 µM
[3] = second compound 0.000949 µM, first compound 0.316 µM
[4] = second compound 0.000949 µM, first compound 1 µM
[5] = second compound 0.000949 µM, first compound 3.16 µM
[6] = second compound 0.000949 µM, first compound 10 µM
[7] = second compound 0.003 µM, first compound 0.0316 µM
[8] = second compound 0.003 µM, first compound 0.1 µM
[9] = second compound 0.003 µM, first compound 0.316 µM
[10] = second compound 0.003 µM, first compound 1 µM
[11] = second compound 0.003 µM, first compound 3.16 µM
[12] = second compound 0.003 µM, first compound 10 µM
[13] = second compound 0.00949 µM, first compound 0.0316 µM
[14] = second compound 0.00949 µM, first compound 0.1 µM
[15] = second compound 0.00949 µM, first compound 0.316 µM
[16] = second compound 0.00949 µM, first compound 1 µM
[17] = second compound 0.00949 µM, first compound 3.16 µM
[18] = second compound 0.00949 µM, first compound 10 µM
[19] = second compound 0.03 µM, first compound 0.0316 µM
[20] = second compound 0.03 µM, first compound 0.1 µM
[21] = second compound 0.03 µM, first compound 0.316 µM
[22] = second compound 0.03 µM, first compound 1 µM
[23] = second compound 0.03 µM, first compound 3.16 µM
[24] = second compound 0.03 µM, first compound 10 µM
[25] = second compound 0.0949 µM, first compound 0.0316 µM
[26] = second compound 0.0949 µM, first compound 0.1 µM
[27] = second compound 0.0949 µM, first compound 0.316 µM
[28] = second compound 0.0949 µM, first compound 1 µM
[29] = second compound 0.0949 µM, first compound 3.16 µM
[30] = second compound 0.0949 µM, first compound 10 µM
[31] = second compound 0.3 µM, first compound 0.0316 µM
[32] = second compound 0.3 µM, first compound 0.1 µM
[33] = second compound 0.3 µM, first compound 0.316 µM
[34] = second compound 0.3 µM, first compound 1 µM
[35] = second compound 0.3 µM, first compound 3.16 µM
[36] = second compound 0.3 µM, first compound 10 µM
[37] = second compound 0.000949 µM, first compound 0.00316 µM
[38] = second compound 0.000949 µM, first compound 0.01 µM
[39] = second compound 0.003 µM, first compound 0.00316 µM
[40] = second compound 0.003 µM, first compound 0.01 µM
[41] = second compound 0.00949 µM, first compound 0.00316 µM
[42] = second compound 0.00949 µM, first compound 0.01 µM
[43] = second compound 0.03 µM, first compound 0.00316 µM
[44] = second compound 0.03 µM, first compound 0.01 µM
[45] = second compound 0.0949 µM, first compound 0.00316 µM
[46] = second compound 0.0949 µM, first compound 0.01 µM
[47] = second compound 0.3 µM, first compound 0.00316 µM
[48] = second compound 0.3 µM, first compound 0.01 µM
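Further: spheroids exposed to agents for seven days before the viability readout.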
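Wherever viability, T/C is given: luminescence used as a proxy for viable cell amount.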

## CC(C)NCC(C(=O)N1CCN(c2ncnc3c2C(C)CC3O)CC1)c1ccc(Cl)cc1 (stereo not drawn) + CCn1c(-c2cccnc2C(C)OC)c2c3cc(ccc31)N1CCOC(CC(NC(=O)C(C(C)C)N(C)C(=O)C3(F)CCN(C(=O)C#CC(C)(C)N(C)C)CC3)C(=O)N3CCCC(N3)C(=O)OCC(C)(C)C2)C1
Second compound 0.000949 µM
  IC50: > 10000 nM
Second compound 0.003 µM
  IC50: > 10000 nM
Second compound 0.00949 µM
  IC50: < 31.6 nM
Second compound 0.03 µM
  IC50: < 31.6 nM
Second compound 0.0949 µM
  IC50: < 31.6 nM
Second compound 0.3 µM
  IC50: < 31.6 nM
[1]
  viability, T/C: 64.3%
[2]
  viability, T/C: 61.4%
[3]
  viability, T/C: 83.3%
[4]
  viability, T/C: 73.7%
[5]
  viability, T/C: 73%
[6]
  viability, T/C: 70.4%
[7]
  viability, T/C: 68.8%
[8]
  viability, T/C: 46.6%
[9]
  viability, T/C: 61%
[10]
  viability, T/C: 51.2%
[11]
  viability, T/C: 64.1%
[12]
  viability, T/C: 47%
[13]
  viability, T/C: 45.4%
[14]
  viability, T/C: 37.7%
[15]
  viability, T/C: 42.9%
[16]
  viability, T/C: 34.6%
[17]
  viability, T/C: 50.8%
[18]
  viability, T/C: 39.6%
[19]
  viability, T/C: 33%
[20]
  viability, T/C: 39%
[21]
  viability, T/C: 36.8%
[22]
  viability, T/C: 34%
[23]
  viability, T/C: 38.1%
[24]
  viability, T/C: 35%
[25]
  viability, T/C: 32.4%
[26]
  viability, T/C: 42.1%
[27]
  viability, T/C: 34.7%
[28]
  viability, T/C: 36.4%
[29]
  viability, T/C: 36%
[30]
  viability, T/C: 34.5%
[31]
  viability, T/C: 31.6%
[32]
  viability, T/C: 38.5%
[33]
  viability, T/C: 34.4%
[34]
  viability, T/C: 32.6%
[35]
  viability, T/C: 33.7%
[36]
  viability, T/C: 32.2%

## CC(C)n1nc(-c2ccc3oc(N)nc3c2)c2c(N)ncnc21 + CCn1c(-c2cccnc2C(C)OC)c2c3cc(ccc31)N1CCOC(CC(NC(=O)C(C(C)C)N(C)C(=O)C3(F)CCN(C(=O)C#CC(C)(C)N(C)C)CC3)C(=O)N3CCCC(N3)C(=O)OCC(C)(C)C2)C1
Second compound 0.000949 µM
  IC50: 46.3 nM
Second compound 0.003 µM
  IC50: 2.56 nM
Second compound 0.00949 µM
  IC50: 0.449 nM
Second compound 0.03 µM
  IC50: < 0.316 nM
Second compound 0.0949 µM
  IC50: < 0.316 nM
Second compound 0.3 µM
  IC50: < 0.316 nM
Second compound 0.000949 µM, first compound 0.000316 µM
  viability, T/C: 58%
Second compound 0.000949 µM, first compound 0.001 µM
  viability, T/C: 66.9%
[37]
  viability, T/C: 65.7%
[38]
  viability, T/C: 63.2%
[1]
  viability, T/C: 50.5%
[2]
  viability, T/C: 41.8%
Second compound 0.003 µM, first compound 0.000316 µM
  viability, T/C: 58.5%
Second compound 0.003 µM, first compound 0.001 µM
  viability, T/C: 53.4%
[39]
  viability, T/C: 53%
[40]
  viability, T/C: 38.5%
[7]
  viability, T/C: 40.6%
[8]
  viability, T/C: 31.9%
Second compound 0.00949 µM, first compound 0.000316 µM
  viability, T/C: 52.1%
Second compound 0.00949 µM, first compound 0.001 µM
  viability, T/C: 46%
[41]
  viability, T/C: 34.8%
[42]
  viability, T/C: 33.3%
[13]
  viability, T/C: 30.5%
[14]
  viability, T/C: 28.9%
Second compound 0.03 µM, first compound 0.000316 µM
  viability, T/C: 35.2%
Second compound 0.03 µM, first compound 0.001 µM
  viability, T/C: 40%
[43]
  viability, T/C: 36.5%
[44]
  viability, T/C: 23.9%
[19]
  viability, T/C: 29.1%
[20]
  viability, T/C: 25.6%
Second compound 0.0949 µM, first compound 0.000316 µM
  viability, T/C: 34.3%
Second compound 0.0949 µM, first compound 0.001 µM
  viability, T/C: 32%
[45]
  viability, T/C: 32.6%
[46]
  viability, T/C: 28.6%
[25]
  viability, T/C: 30.6%
[26]
  viability, T/C: 22.7%
Second compound 0.3 µM, first compound 0.000316 µM
  viability, T/C: 29.4%
Second compound 0.3 µM, first compound 0.001 µM
  viability, T/C: 35%
[47]
  viability, T/C: 30.1%
[48]
  viability, T/C: 27.5%
[31]
  viability, T/C: 25.9%
[32]
  viability, T/C: 23.7%

## CC(Nc1ccc2c(c1)OCCn1cc(N3C(=O)OCC3C(F)F)nc1-2)C(N)=O (stereo not drawn) + CCn1c(-c2cccnc2C(C)OC)c2c3cc(ccc31)N1CCOC(CC(NC(=O)C(C(C)C)N(C)C(=O)C3(F)CCN(C(=O)C#CC(C)(C)N(C)C)CC3)C(=O)N3CCCC(N3)C(=O)OCC(C)(C)C2)C1
Second compound 0.000949 µM
  IC50: > 10000 nM
Second compound 0.003 µM
  IC50: 829 nM
Second compound 0.00949 µM
  IC50: < 31.6 nM
Second compound 0.03 µM
  IC50: < 31.6 nM
Second compound 0.0949 µM
  IC50: < 31.6 nM
Second compound 0.3 µM
  IC50: < 31.6 nM
[1]
  viability, T/C: 77.4%
[2]
  viability, T/C: 70.5%
[3]
  viability, T/C: 72.1%
[4]
  viability, T/C: 60.8%
[5]
  viability, T/C: 71.5%
[6]
  viability, T/C: 51.3%
[7]
  viability, T/C: 57.7%
[8]
  viability, T/C: 60.8%
[9]
  viability, T/C: 51.5%
[10]
  viability, T/C: 45.2%
[11]
  viability, T/C: 48.9%
[12]
  viability, T/C: 34.7%
[13]
  viability, T/C: 46.6%
[14]
  viability, T/C: 34.3%
[15]
  viability, T/C: 35.8%
[16]
  viability, T/C: 26.9%
[17]
  viability, T/C: 37.2%
[18]
  viability, T/C: 23%
[19]
  viability, T/C: 37.9%
[20]
  viability, T/C: 38.6%
[21]
  viability, T/C: 32.4%
[22]
  viability, T/C: 25%
[23]
  viability, T/C: 27.3%
[24]
  viability, T/C: 21.8%
[25]
  viability, T/C: 34.4%
[26]
  viability, T/C: 29.4%
[27]
  viability, T/C: 29.9%
[28]
  viability, T/C: 24.2%
[29]
  viability, T/C: 24%
[30]
  viability, T/C: 19.4%
[31]
  viability, T/C: 34.6%
[32]
  viability, T/C: 27%
[33]
  viability, T/C: 31.1%
[34]
  viability, T/C: 23.6%
[35]
  viability, T/C: 27.5%
[36]
  viability, T/C: 18.9%

## O=C(c1ccc(F)c(F)c1Nc1ccc(I)cc1F)N1CC(O)([C@@H]2CCCCN2)C1 + CCn1c(-c2cccnc2C(C)OC)c2c3cc(ccc31)N1CCOC(CC(NC(=O)C(C(C)C)N(C)C(=O)C3(F)CCN(C(=O)C#CC(C)(C)N(C)C)CC3)C(=O)N3CCCC(N3)C(=O)OCC(C)(C)C2)C1
Second compound 0.000949 µM
  IC50: 64.7 nM
Second compound 0.003 µM
  IC50: 9.15 nM
Second compound 0.00949 µM
  IC50: < 3.16 nM
Second compound 0.03 µM
  IC50: < 3.16 nM
Second compound 0.0949 µM
  IC50: < 3.16 nM
Second compound 0.3 µM
  IC50: < 3.16 nM
[37]
  viability, T/C: 76.5%
[38]
  viability, T/C: 53.9%
[1]
  viability, T/C: 63.3%
[2]
  viability, T/C: 42.2%
[3]
  viability, T/C: 6.87%
[4]
  viability, T/C: 2.59%
[39]
  viability, T/C: 57.1%
[40]
  viability, T/C: 44.8%
[7]
  viability, T/C: 40.7%
[8]
  viability, T/C: 18%
[9]
  viability, T/C: 6.5%
[10]
  viability, T/C: 2.42%
[41]
  viability, T/C: 41.7%
[42]
  viability, T/C: 32%
[13]
  viability, T/C: 22%
[14]
  viability, T/C: 14.2%
[15]
  viability, T/C: 5.98%
[16]
  viability, T/C: 2.66%
[43]
  viability, T/C: 27.4%
[44]
  viability, T/C: 33.5%
[19]
  viability, T/C: 25.5%
[20]
  viability, T/C: 11%
[21]
  viability, T/C: 6.18%
[22]
  viability, T/C: 2.44%
[45]
  viability, T/C: 28.3%
[46]
  viability, T/C: 24.3%
[25]
  viability, T/C: 19.7%
[26]
  viability, T/C: 10.6%
[27]
  viability, T/C: 5.39%
[28]
  viability, T/C: 2.34%
[47]
  viability, T/C: 28.5%
[48]
  viability, T/C: 26.5%
[31]
  viability, T/C: 21.9%
[32]
  viability, T/C: 10.1%
[33]
  viability, T/C: 4.51%
[34]
  viability, T/C: 2.36%

— PubChem BioAssay AID2060891 (Molecular Pharmacology Branch, DTP, NCI, 2025)
